Assay results published in US20250151723A1, “FUNGICIDAL COMBINATION, COMPOSITION, AND USE THEREOF” (UPL MAURITIUS LIMITED, priority 2023, published 2025).
Read-outs that look alike come from different tables or passages of the source.

What was measured:
[1] = system: Alternaria solani in tomato (early blight disease); assay: Greenhouse efficacy on tomato early blight, lesion area at 4 dpi (Examples 1-3); type: in vivo
Botrytis = assay: Greenhouse trial on potted plants, Botrytis in pepper (Example 7)
Experimental: (§1) Following trials were conducted on crops (potted plants) infected with the pathogen/disease in a greenhouse trial.

[2] = system: Soybean Target Spot (Corynespora cassicola); assay: Greenhouse trial on potted soybean plants, target spot (Example 8); type: in vivo
Target Spot = assay: Greenhouse trial on potted plants, target spot in soybean (Example 7)
Experimental: as §1

[3] = system: tomato early blight disease; assay: Greenhouse trial on potted tomato plants, early blight (Example 10); type: in vivo
Early Blight = settings: Tomato
Experimental: as §1

cucumber downy mildew [4] = assay: Greenhouse efficacy on cucumber downy mildew (Example 4); type: in vivo
[5] = system: tomato early blight disease; assay: Greenhouse efficacy on tomato early blight disease (Example 6); type: in vivo
cucumber downy mildew [6] = assay: Greenhouse efficacy on cucumber downy mildew (Example 9); type: in vivo
[7] = system: tomato late blight disease; type: in vivo
[8] = 17.5 g/L, 700 g Cu/HA (standard)
[9] = 0.75 g/L, 30 g Cu/HA (standard)

O=C(O)c1ccccc1O [Salicylic acid] showed an Observed efficacy % ([1]; Table 1, 20 g/HA of SA) of 13.3%, an Observed efficacy % ([1]; Table 2, 40 mg/L, 2.5 g SA/HA) of 23.4% and an Observed efficacy % ([1]; Table 2, 80 mg/L, 5 g SA/HA) of 22.1%. The Observed efficacy % ([1]; Table 2, 320 mg/L, 10 g/HA) was −2.3% and the Observed efficacy % ([1]; Table 2, 320 mg/L, 20 g/HA) was −2.7%.
In the case of O=C1C2CC=CCC2C(=O)N1SC(Cl)(Cl)Cl (stereo not shown) [captan], the “Efficacy (%)” value (Botrytis; 0.002 g/l, 0.16 gai/ha) is reported as 20.4%, the “Efficacy (%)” value ([2]; 0.02 g/L, 1.56 g Captan/ha) is reported as 0.4% and the “Efficacy (%)” value ([2]; 6 g/L, 467 g Captan/ha (full recommended dose)) is reported as 100%.
With O=C1c2ccccc2C(=O)N1SC(Cl)(Cl)Cl [folpet] the “Efficacy (%)” value (Botrytis; 0.002 ml/l, 0.1 gai/ha) was 9.3%, the “Efficacy (%)” value ([2]; 0.015 g/L, 0.63 g Folpet/ha) was 34.7% and the “Efficacy (%)” value ([2]; 5 g/L, 208.5 g Folpet/ha (full recommended dose)) was 98.4%. The “Efficacy (%)” value (Target Spot; 0.015 g/l, 0.625 gai/ha) was 34.7%.
O=C([O-])c1ccccc1O.[K+] [potassium salicylate] gave an Observed efficacy % ([3]; 0.1 g/L, 1.25 gai/ha) of 0.4%, an Observed efficacy % ([3]; 0.41 g/L, 5.13 gai/ha) of 2.3% and an Observed efficacy % ([3]; 0.82 g/L, 10.25 gai/ha) of 37.4%. The Observed efficacy % ([3]; 1.64 g/L, 20.5 gai/ha) was 34.4%, the “Efficacy (%)” value (Early Blight; 0.41 g/l, 5.13 gai/ha) was −3% and the “Efficacy (%)” value (Botrytis; 0.025 g/l, 0.31 gai/ha (mancozeb and captan sections)) was −5.2%. The “Efficacy (%)” value (Botrytis; 0.1 g/l, 1.25 gai/ha (mancozeb and captan sections)) was −3.9%, the “Efficacy (%)” value (Botrytis; folpet section, 0.1 g/l, 1.25 gai/ha) was 12% and the Observed efficacy (cucumber downy mildew [4]; 71 mg/L, 0.89 g SA/HA) was 21.9. The “Efficacy (%)” value ([2]; 25 mg/L, 0.31 g KSA/ha) was 19.5%, the “Efficacy (%)” value ([2]; 100 mg/L, 1.25 g KSA/ha) was 12.4% and the “Efficacy (%)” value ([2]; 410 mg/L, 5.13 g KSA/ha) was 1.8%. The “Efficacy (%)” value ([2]; 820 mg/L, 10.27 g KSA/ha) was −6.1%, the “Efficacy (%)” value ([2]; 1.64 g/L, 20.54 g KSA/ha) was −11.4% and the “Efficacy (%)” value (Target Spot; captan and folpet sections, 0.025 g/l, 0.31 gai/ha) was 19.5%. For the same compound, the “Efficacy (%)” value (Target Spot; captan and folpet sections, 0.1 g/l, 1.25 gai/ha) was 12.4%, the “Efficacy (%)” value (Target Spot; captan and folpet sections, 0.41 g/l, 5.13 gai/ha) was 1.8% and the “Efficacy (%)” value (Target Spot; captan and folpet sections, 0.82 g/l, 10.25 gai/ha) was −6.1%. The “Efficacy (%)” value (Target Spot; captan and folpet sections, 1.64 g/l, 20.5 gai/ha) was −11.4%, the “Efficacy (%)” value (Target Spot; mancozeb section, 0.025 g/l, 0.31 gai/ha) was 16.8% and the “Efficacy (%)” value (Target Spot; mancozeb section, 0.1 g/l, 1.25 gai/ha) was 12.6%. The “Efficacy (%)” value (Target Spot; mancozeb section, 0.41 g/l, 5.13 gai/ha) was 27.6%, the “Efficacy (%)” value (Target Spot; mancozeb section, 0.82 g/l, 10.25 gai/ha) was −3.8% and the “Efficacy (%)” value (Target Spot; mancozeb section, 1.64 g/l, 20.5 gai/ha) was 6.3%. It also gave an Observed efficacy % ([5]; 310 mg/L, 3.875 g SA/HA) of 2.2%, an Observed efficacy % ([5]; 410 mg/L, 5.125 g SA/HA) of 13.1% and an Observed efficacy % ([5]; 620 mg/L, 7.75 g/HA) of 11.4%. It also gave an Observed efficacy % (cucumber downy mildew [6]; 103 mg/L, 1.29 g KSA/HA) of 14.0%, an Observed efficacy % (cucumber downy mildew [6]; 137 mg/L, 1.71 g KSA/HA) of −1.1% and an Observed efficacy % (cucumber downy mildew [6]; 207 mg/L, 2.59 g KSA/HA) of −2.7%. The Observed efficacy % ([7]; 137 mg/L, 1.7 g SA/HA) was 15.2% and the Observed efficacy % ([1]; Table 3, 410 mg/L) was 5.8%.
Compound O=S(=O)([O-])[O-].[Cu+2].[Cu+2].[Cu+2].[Cu+2].[OH-].[OH-].[OH-].[OH-].[OH-].[OH-] [tribasic copper sulphate] has an Observed efficacy (cucumber downy mildew [4]; 0.13 g/L, 5.2 g Cu/HA) of −7.6, an Observed efficacy (cucumber downy mildew [4]; [8]) of 94.9 and an Observed efficacy % ([5]; 0.75 g/L, 30 g Cu/HA) of 18.5%. For the same compound, the Observed efficacy % [5, 8] was 57.6%, the Observed efficacy % (cucumber downy mildew [6]; 0.25 g/L, 10 g Cu/HA) was 50.7% and the Observed efficacy % (cucumber downy mildew [6]; [9]) was 96.7%. For the same compound, the Observed efficacy % ([7]; 0.25 g/L, 10 g Cu/HA) was 18.5%, the Observed efficacy % [7, 9] was 62.9% and the Observed efficacy % ([1]; Table 1, 150 g/HA of Cu) was 31%. It also gave an Observed efficacy % ([1]; Table 1, 700 g/HA of Cu (standard treatment)) of 88%, an Observed efficacy % ([1]; Table 2, 0.75 g/L, 150 g Cu/HA) of 40.2% and an Observed efficacy % ([1]; Table 2, 17.5 g/L, 700 g Cu/HA (standard)) of 86.9%. It also gave an Observed efficacy % ([1]; Table 3, 0.75 g/L) of 23% and an Observed efficacy % ([1]; Table 3, 17.5 g/L (standard)) of 75%.
In the case of mancozeb, the “Efficacy (%)” value (Early Blight; 0.0187 g/l, 1.4 gai/ha) is reported as −12.6%, the “Efficacy (%)” value (Botrytis; 0.0168 g/l, 1.26 gai/ha) is reported as 26.4% and the “Efficacy (%)” value (Target Spot; 0.0075 g/l, 0.56 gai/ha) is reported as −6.6%.
